Measured values as given in US9278963B2, “Pyrimidine hydroxy amide compounds as histone deacetylase inhibitors” (Acetylon Pharmaceuticals, Inc., priority 2013, dated 2016).

Columns and labels:
Format in all cases: cell-based
[1] = tested on: SH-SY5Y neuroblastoma cells; test: Neuroblastoma cell cycle by flow cytometry, SH-SY5Y; details: 72 hours, 0.5, 2 and 5 μM (ATRA 1 μM)
Procedure: The following is a quick summary of the neuroblastoma cell cycle experiments. Adherent cells were plated into 12-well plates at 10^6 cells/well and allowed to adhere for 2-4 hours. Compounds were dispensed in DMSO at the indicated concentrations using an automated liquid handling system (Tecan D300) and incubated for the indicated times at 37° C. with 5% CO2. Cells were harvested with enzyme-free cell disassociation solution and washed with buffered saline. Cells were fixed overnight with 100% ethanol. Cell cycle was assessed by flow cytometry using the Molecular Probes FxCycle PI/RNase Staining Solution kit according to manufacture protocols.
The protocol for the cell cycle experiments was as follows. The day before the experiment, the cells were fed in the flask by doubling the media. Then, the cells were harvested by adding non-enzymatic cell dissociation media and incubating at 37° C. for 15 minutes. Next, the cells were transferred to a 50 ml tube and pipet to create a single-cell suspension. The cells were then washed with PBS buffer. Then, the cells were resuspended in complete media at 5×10^5 cells per ml. Next, 2 ml of cells were transferred to 12-well plates. Then, the treatment compounds were dispensed into each well using the D300 liquid handler. The cells were incubated for the indicated time at 37° C. Then, the cells were harvested by adding 500 μl enzyme free cell dissociation solution and incubating at 37° C. for 15 minutes. Next, the cells were spun into a pellet and then washed with PBS. Then, 500 μl 100% EtOH was added and incubated at 4° C. overnight. Then, the cells were washed 3× with PBS. The cells were then resuspended in […] FxCycle PI/RNase solution, and incubated for 2-4 hours at room temperature. Finally, the cells were assayed by flow cytometry.
SH-SY5Y neuroblastoma cells were treated with varying concentrations of either Compound X or Y, and/or ATRA (all trans retinoic acid). […] In addition, the fold change of p21 was also calculated. […] The HDACi/ATRA combination effects were modest, with little difference compared to single agents.

[2] = tested on: human erythroid, myeloid and megakaryocyte hematopoietic progenitors; test: Hematopoietic progenitor proliferation (colony) assay; details: compared with MS-275; 14-16 days in culture
Procedure: This study evaluated the potential effect of test compounds on human erythroid, myeloid and megakaryocyte hematopoietic progenitor proliferation in media formulations containing various cytokines. Normal human bone marrow light density cells derived from a normal bone marrow donor (Lonza, Md.) were used for these studies. Clonogenic progenitors of human erythroid (CFU-E, BFU-E) and granulocyte-monocyte (CFU-GM) lineages were assessed in a semi-solid methylcellulose-based media formulation containing rhIL-3 (10 ng/mL), rhGM-SCF (10 ng/mL), rhSCF (50 ng/mL) and Epo (3 U/mL). Clonogenic progenitors of human megakaryocyte lineage were assessed in a semi-solid collagen based matrix containing rhIL-3 (10 ng/mL), rhIL-6 (10 ng/mL) and rhTpo (50 ng/mL).
Compounds were added to the medium to give the final desired concentrations. […] Following 14-16 days in culture, myeloid and erythroid colonies were assessed microscopically and scored by trained personnel. […] The colonies were assessed and scored by trained personnel and divided into the following categories based on size; CFU-Mk (3-20), CFU-Mk (21-49) and CFU-Mk (≧50).
The mean±1 standard deviation of three replicate cultures was calculated for progenitors in both media formulations. […] A sigmoidal curve was then fit to the graph and from this curve the inhibitory concentration (μM) was then calculated using the Boltzman equation […]

[3] = tested on: SH-SY5Y neuroblastoma cells; test: Neuroblastoma maturation gene expression, SH-SY5Y; details: 2 days, 3 μM
Procedure: The following is a quick summary of the HDAC neuroblastoma maturation experiments. Adherent cells were plated into 12- or 24-well plates at 10^6 cells/well and allowed to adhere for 2-4 hours. Compounds were dispensed in DMSO at the indicated concentrations using an automated liquid handling system (Tecan D300) and incubated for the indicated times at 37° C. with 5% CO2. Cells were harvested and RNA extracted using the Qiagen RNeasy Mini Kit according to manufacture protocols. The RNA was quantified and relative expression levels were assessed using the Applied Biosystems TaqMan RNA-to-Ct Kit according to manufacture protocols using the indicated TaqMan probes.
The protocol for the maturation experiments was as follows. The day before the experiment, the cells were fed in the flask by doubling the media. The cells were then harvested by adding non-enzymatic cell dissociation media and incubating at 37° C. for 15 minutes. The cells were transferred to a 50 ml tube and pipet to create a single-cell suspension. The cells were washed with PBS buffer. The cells were then resuspended in complete media at 5×10^5 cells per ml. Next, 2 ml of cells were transferred to 24- or 12-well plates. […] The RNA concentration was recorded. The relative RNA levels were assessed using the Applied Biosystems TaqMan RNA-to-Ct kit according to manufacture protocols using the indicated Taqman probes.

## O=C(NO)c1cnc(NC2(c3ccccc3)CCN(C(=O)Nc3ccccc3)CC2)nc1 [Compound 001, N-hydroxy-2-((4-phenyl-1-(phenylcarbamoyl)piperidin-4-yl)amino)pyrimidine-5-carboxamide]
[1]
  percent of the cell population in G2, S, G1 and Sub G1 phase: induced a reduction in G1/G2 and increase in sub-G1
[2]
  cytotoxicity against erythroid, myeloid and megakaryocytes: significantly less cytotoxicity
[3]
  fold change of genes associated with maturation: induces gene expression changes that are consistent with maturation
